Holding throughout (test): Inhibitory Assay
Holding throughout (details): pH 6.5

The target in assay [1] is T1, Tyrosine-protein phosphatase non-receptor type 11 (Homo sapiens, UniProt Q06124).
T1 sequence (Q06124 whole entry): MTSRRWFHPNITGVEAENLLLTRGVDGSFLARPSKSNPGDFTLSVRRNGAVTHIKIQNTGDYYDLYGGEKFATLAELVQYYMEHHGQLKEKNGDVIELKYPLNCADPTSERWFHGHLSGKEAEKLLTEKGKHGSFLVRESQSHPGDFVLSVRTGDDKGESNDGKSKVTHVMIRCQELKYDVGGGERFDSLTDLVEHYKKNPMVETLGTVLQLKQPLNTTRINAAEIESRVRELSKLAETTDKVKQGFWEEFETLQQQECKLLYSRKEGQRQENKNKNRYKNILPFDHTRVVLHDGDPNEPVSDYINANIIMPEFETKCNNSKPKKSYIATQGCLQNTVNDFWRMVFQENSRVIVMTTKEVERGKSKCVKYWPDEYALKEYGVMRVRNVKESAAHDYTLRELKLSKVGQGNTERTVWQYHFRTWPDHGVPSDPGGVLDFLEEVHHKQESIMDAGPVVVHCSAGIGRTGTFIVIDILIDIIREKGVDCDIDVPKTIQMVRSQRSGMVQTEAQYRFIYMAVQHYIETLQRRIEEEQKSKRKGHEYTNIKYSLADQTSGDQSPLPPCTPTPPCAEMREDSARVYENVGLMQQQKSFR
The procedure: (§1) Enzymatic activity of enzyme was evaluated using pNPP assay. Briefly, a reaction mixture (100 µL) containing 50 mM MOPS (pH 6.5), 2 mM pNPP and recombinant enzymes was monitored at 405 nm for 2 min at 30 °C.

The target of assay [2] is Tyrosine-protein phosphatase non-receptor type 6 (Homo sapiens, UniProt P29350). The protocol: as §1
Sequence of Tyrosine-protein phosphatase non-receptor type 6 (P29350 whole entry): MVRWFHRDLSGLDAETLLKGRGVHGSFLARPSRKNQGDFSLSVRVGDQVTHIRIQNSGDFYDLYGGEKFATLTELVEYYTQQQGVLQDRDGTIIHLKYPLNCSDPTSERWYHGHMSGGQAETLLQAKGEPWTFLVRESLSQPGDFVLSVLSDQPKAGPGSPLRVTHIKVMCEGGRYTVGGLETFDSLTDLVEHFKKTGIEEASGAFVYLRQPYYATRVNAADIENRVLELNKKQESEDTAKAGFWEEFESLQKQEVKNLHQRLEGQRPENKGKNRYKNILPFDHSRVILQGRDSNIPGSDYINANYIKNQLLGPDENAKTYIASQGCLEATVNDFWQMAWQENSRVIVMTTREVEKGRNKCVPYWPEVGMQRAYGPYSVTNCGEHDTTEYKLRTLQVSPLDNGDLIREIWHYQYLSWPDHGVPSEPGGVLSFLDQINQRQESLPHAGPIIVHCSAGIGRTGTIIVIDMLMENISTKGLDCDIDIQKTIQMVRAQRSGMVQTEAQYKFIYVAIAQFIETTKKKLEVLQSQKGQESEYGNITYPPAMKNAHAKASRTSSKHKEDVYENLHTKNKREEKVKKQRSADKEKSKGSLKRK
The target of assay [3] is T2, Tyrosine-protein phosphatase non-receptor type 2 (Homo sapiens, UniProt P17706).
T2 sequence (P17706 whole entry): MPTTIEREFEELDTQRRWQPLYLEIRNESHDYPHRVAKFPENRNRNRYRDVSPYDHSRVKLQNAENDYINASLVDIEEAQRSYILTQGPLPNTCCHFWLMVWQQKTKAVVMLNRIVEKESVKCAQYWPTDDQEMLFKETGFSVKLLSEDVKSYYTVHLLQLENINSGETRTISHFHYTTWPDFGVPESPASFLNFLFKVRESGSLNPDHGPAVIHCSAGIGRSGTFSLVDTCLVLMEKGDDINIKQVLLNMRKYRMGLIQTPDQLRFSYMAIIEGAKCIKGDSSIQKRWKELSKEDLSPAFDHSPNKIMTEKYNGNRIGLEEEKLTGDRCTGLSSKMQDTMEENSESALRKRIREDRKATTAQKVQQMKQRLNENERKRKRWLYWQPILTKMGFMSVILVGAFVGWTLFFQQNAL
The procedure: as §1

Assay [4] has as its target T3, Tyrosine-protein phosphatase non-receptor type 1 (Homo sapiens, UniProt P18031).
T3 sequence (P18031 whole entry): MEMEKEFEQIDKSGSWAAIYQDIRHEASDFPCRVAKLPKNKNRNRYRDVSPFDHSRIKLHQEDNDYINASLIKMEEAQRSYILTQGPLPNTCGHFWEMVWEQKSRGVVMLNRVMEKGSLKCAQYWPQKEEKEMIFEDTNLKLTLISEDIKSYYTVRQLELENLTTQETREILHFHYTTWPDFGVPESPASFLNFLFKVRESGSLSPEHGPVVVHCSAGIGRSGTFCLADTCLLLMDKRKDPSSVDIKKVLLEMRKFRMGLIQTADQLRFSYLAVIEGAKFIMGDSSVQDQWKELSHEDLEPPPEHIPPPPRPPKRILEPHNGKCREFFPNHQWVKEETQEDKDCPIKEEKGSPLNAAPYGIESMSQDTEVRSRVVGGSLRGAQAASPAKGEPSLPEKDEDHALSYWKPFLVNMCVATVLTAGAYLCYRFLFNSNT
The procedure: as §1

Assay [5] has as its target Receptor-type tyrosine-protein phosphatase F (Homo sapiens, UniProt P10586). The protocol: as §1

Structures are written as SMILES.

Sequence of Receptor-type tyrosine-protein phosphatase F (P10586 whole entry): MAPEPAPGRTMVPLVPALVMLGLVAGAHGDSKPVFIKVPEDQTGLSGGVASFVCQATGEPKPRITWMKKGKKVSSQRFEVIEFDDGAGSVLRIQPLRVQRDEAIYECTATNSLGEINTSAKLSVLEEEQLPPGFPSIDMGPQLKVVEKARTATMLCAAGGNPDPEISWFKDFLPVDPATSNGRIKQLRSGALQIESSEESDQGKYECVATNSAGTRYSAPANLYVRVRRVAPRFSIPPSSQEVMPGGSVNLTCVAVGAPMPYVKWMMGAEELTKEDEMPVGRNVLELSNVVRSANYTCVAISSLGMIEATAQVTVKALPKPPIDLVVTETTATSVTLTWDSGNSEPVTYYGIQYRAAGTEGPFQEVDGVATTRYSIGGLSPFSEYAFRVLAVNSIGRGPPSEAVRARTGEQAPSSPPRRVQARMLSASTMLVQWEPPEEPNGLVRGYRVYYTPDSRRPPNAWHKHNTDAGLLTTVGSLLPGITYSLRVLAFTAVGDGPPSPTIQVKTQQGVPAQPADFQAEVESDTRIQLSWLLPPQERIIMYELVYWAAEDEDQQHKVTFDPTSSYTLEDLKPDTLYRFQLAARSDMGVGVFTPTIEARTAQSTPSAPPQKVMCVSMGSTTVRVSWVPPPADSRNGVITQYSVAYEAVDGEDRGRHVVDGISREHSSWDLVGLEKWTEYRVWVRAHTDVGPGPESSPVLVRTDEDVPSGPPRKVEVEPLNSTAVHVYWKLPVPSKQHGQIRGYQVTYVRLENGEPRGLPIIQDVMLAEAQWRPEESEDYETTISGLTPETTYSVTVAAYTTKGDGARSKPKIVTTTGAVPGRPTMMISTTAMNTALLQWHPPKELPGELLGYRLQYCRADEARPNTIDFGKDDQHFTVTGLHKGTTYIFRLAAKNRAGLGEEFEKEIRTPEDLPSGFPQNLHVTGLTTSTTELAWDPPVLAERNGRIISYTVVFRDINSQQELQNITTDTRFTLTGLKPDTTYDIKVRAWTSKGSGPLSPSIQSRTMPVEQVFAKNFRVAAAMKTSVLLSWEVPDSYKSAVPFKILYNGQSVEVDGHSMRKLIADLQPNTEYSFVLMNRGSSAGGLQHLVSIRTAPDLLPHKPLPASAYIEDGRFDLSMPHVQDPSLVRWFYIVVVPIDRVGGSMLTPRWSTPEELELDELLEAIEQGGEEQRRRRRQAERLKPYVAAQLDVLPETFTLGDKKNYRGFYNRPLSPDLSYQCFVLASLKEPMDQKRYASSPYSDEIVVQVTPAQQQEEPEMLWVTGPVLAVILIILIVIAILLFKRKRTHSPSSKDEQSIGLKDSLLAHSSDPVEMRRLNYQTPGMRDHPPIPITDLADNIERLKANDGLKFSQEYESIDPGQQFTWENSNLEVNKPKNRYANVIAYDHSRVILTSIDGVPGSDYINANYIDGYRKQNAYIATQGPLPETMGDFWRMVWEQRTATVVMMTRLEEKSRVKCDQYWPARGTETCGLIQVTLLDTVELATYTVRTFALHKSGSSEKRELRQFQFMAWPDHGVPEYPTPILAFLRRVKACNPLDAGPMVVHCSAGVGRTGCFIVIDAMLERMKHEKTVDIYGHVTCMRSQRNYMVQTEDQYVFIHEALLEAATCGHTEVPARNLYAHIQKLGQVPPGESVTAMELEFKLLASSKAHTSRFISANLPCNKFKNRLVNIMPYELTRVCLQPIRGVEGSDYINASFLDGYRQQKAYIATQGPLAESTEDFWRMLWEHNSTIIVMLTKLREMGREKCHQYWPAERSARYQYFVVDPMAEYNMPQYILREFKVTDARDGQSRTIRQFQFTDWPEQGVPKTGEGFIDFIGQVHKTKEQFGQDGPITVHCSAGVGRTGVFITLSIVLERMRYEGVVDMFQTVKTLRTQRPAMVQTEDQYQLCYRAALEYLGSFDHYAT

In the case of `CO[C@H]1O[C@H](Cn2cc(CNc3nc(Cl)c4ncn(Cc5cn(C[C@H]6O[C@H](OC)[C@H](OCc7ccccc7)[C@@H](OCc7ccccc7)[C@H]6OCc6ccccc6)nn5)c4n3)nn2)[C@H](OCc2ccccc2)[C@H](OCc2ccccc2)[C@H]1OCc1ccccc1` [6-Chloro-N,9-bis[(1-{[(2R,3S,4S,5R,6S)-3,4,5-tris(benzyloxy)-tetrahydro-6-methoxy-2H-pyran-2-yl]methyl}-1H-1,2,3-triazol-4-yl)methyl]-9H-purin-2-amine (14)], the concentration for half-maximal inhibition (IC50) in assay [1] is > 80 µM; in assay [2], > 80 µM; in assay [3], 18 µM; in assay [4], 3.2 µM; in assay [5], > 80 µM.

Take `CC(=O)OC[C@H]1O[C@H](n2cc(Cn3cnc4c(Cl)nc(N)nc43)nn2)[C@H](OC(C)=O)[C@@H](OC(C)=O)[C@@H]1OC(C)=O` [2-Amino-6-chloro-9-{[1-(2,3,4,6-tetra-O-acetyl-b-d-glucopyranosyl)-1H-1,2,3-triazol-4-yl]methyl}-9H-purine (7)]: the IC50 in assay [1], in assay [2], in assay [3], in assay [4] and in assay [5] was > 80 µM each time.

`COc1nc(N)nc2c1ncn2Cc1cn(C[C@H]2O[C@H](OC)[C@H](OCc3ccccc3)[C@@H](OCc3ccccc3)[C@@H]2OCc2ccccc2)nn1` [Methyl 6-{4-[(2-Amino-6-methoxy-9H-purin-9-yl)methyl]-1H-1,2,3-triazol-1-yl}-2,3,4-tri-O-benzyl-6-deoxy-a-d-glucopyranoside (11)]: the IC50 in assay [1], in assay [2], in assay [3], in assay [4] and in assay [5] was > 80 µM in each case.

With `CC(=O)OC[C@H]1O[C@H](n2cc(CNc3nc(Cl)c4ncn(Cc5cn([C@H]6O[C@H](COC(C)=O)[C@@H](OC(C)=O)[C@H](OC(C)=O)[C@H]6OC(C)=O)nn5)c4n3)nn2)[C@H](OC(C)=O)[C@@H](OC(C)=O)[C@@H]1OC(C)=O` [6-Chloro-9-{[1-(2,3,4,6-tetra-O-acetyl-b-d-glucopyranosyl)-1H-1,2,3-triazol-4-yl]methyl}-2-({[1-(2,3,4,6-tetra-O-acetyl-b-d-glucopyranosyl)-1H-1,2,3-triazol-4-yl]methyl}amino)-9H-purine (8)], the IC50 in assay [1], in assay [2], in assay [3], in assay [4] and in assay [5] was > 80 µM each time.

For the compound `CO[C@H]1O[C@H](Cn2cc(CNc3nc(Cl)c4ncn(Cc5cn(C[C@H]6O[C@H](OC)[C@H](OCc7ccccc7)[C@@H](OCc7ccccc7)[C@@H]6OCc6ccccc6)nn5)c4n3)nn2)[C@@H](OCc2ccccc2)[C@H](OCc2ccccc2)[C@H]1OCc1ccccc1` [6-Chloro-N,9-bis[(1-{[(2R,3R,4S,5R,6S)-3,4,5-tris(benzyloxy)-tetrahydro-6-methoxy-2H-pyran-2-yl]methyl}-1H-1,2,3-triazol-4-yl)methyl]-9H-purin-2-amine (13)], the half-inhibitory concentration (IC50) was > 80 µM in assay [1]; > 80 µM in assay [2]; 11 µM in assay [3]; 2.2 µM in assay [4]; > 80 µM in assay [5].

With `C#CCn1cnc2c(Cl)nc(N)nc21` [6-Chloro-9-(prop-2-yn-1-yl)-9H-purin-2-amine (2)], the IC50 is > 80 µM in assay [1]; > 80 µM in assay [2]; > 80 µM in assay [3]; 232 µM in assay [4]; > 80 µM in assay [5].

For `COc1nc(NCc2cn(C[C@H]3O[C@H](OC)[C@H](OCc4ccccc4)[C@@H](OCc4ccccc4)[C@H]3OCc3ccccc3)nn2)nc2c1ncn2Cc1cn(C[C@H]2O[C@H](OC)[C@H](OCc3ccccc3)[C@@H](OCc3ccccc3)[C@H]2OCc2ccccc2)nn1` [6-Methoxy-N,9-bis[ (1-{[(2R,3S,4S,5R,6S)-3,4,5-tris(benzyloxy)-tetrahydro-6-methoxy-2H-pyran-2-yl]methyl}-1H-1,2,3-triazol-4-yl)methyl]-9H-purin-2-amine (16)], the IC50 in assay [1] is 35.7 µM; in assay [2] it was 24.9 µM; in assay [3] it was 2.9 µM; in assay [4] it was 1.5 µM; in assay [5] it was > 80 µM.

Turning to `CO[C@H]1O[C@H](Cn2cc(Cn3cnc4c(Cl)nc(N)nc43)nn2)[C@H](OCc2ccccc2)[C@H](OCc2ccccc2)[C@H]1OCc1ccccc1` [Methyl 6-{4-[(2-Amino-6-chloro-9H-purin-9-yl)methyl]-1H-1,2,3-triazol-1-yl}-2,3,4-tri-O-benzyl-6-deoxy-a-d-galactopyranoside (10)], the IC50 was > 80 µM in assay [1]; > 80 µM in assay [2]; 53.6 µM in assay [3]; 11.1 µM in assay [4]; > 80 µM in assay [5].

Consider `COc1nc(N)nc2c1ncn2Cc1cn(C[C@H]2O[C@H](OC)[C@H](OCc3ccccc3)[C@@H](OCc3ccccc3)[C@H]2OCc2ccccc2)nn1` [Methyl 6-{4-[(2-Amino-6-methoxy-9H-purin-9-yl)methyl]-1H-1,2,3-triazol-1-yl}-2,3,4-tri-O-benzyl-6-deoxy-a-d-galactopyranoside (12)], for which the IC50 in assay [1], in assay [2], in assay [3], in assay [4] and in assay [5] was > 80 µM each time.

Turning to `C#CCNc1nc(Cl)c2ncn(CC#C)c2n1` [6-Chloro-N,9-di(prop-2-yn-1-yl)-9H-purin-2-amine (3)], the IC50 in assay [1] was > 80 µM; in assay [2], > 80 µM; in assay [3], > 80 µM; in assay [4], 75.7 µM; in assay [5] it was > 80 µM.

For `CO[C@H]1O[C@H](Cn2cc(Cn3cnc4c(Cl)nc(N)nc43)nn2)[C@@H](OCc2ccccc2)[C@H](OCc2ccccc2)[C@H]1OCc1ccccc1` [Methyl 6-{4-[(2-Amino-6-chloro-9H-purin-9-yl)methyl]-1H-1,2,3-triazol-1-yl}-2,3,4-tri-O-benzyl-6-deoxy-a-d-glucopyranoside (9)], the IC50 is > 80 µM in assay [1]; > 80 µM in assay [2]; 29.9 µM in assay [3]; 7.2 µM in assay [4]; > 80 µM in assay [5].

As for `COc1nc(NCc2cn(C[C@H]3O[C@H](OC)[C@H](OCc4ccccc4)[C@@H](OCc4ccccc4)[C@@H]3OCc3ccccc3)nn2)nc2c1ncn2Cc1cn(C[C@H]2O[C@H](OC)[C@H](OCc3ccccc3)[C@@H](OCc3ccccc3)[C@@H]2OCc2ccccc2)nn1` [6-Methoxy-N,9-bis[(1-{[(2R,3R,4S,5R,6S)-3,4,5-tris(benzyloxy)-tetrahydro-6-methoxy-2H-pyran-2-yl]methyl}-1H-1,2,3-triazol-4-yl)methyl]-9H-purin-2-amine (15)], the IC50 in assay [1] is > 80 µM; in assay [2], > 80 µM; in assay [3], 16.2 µM; in assay [4] it was 7.9 µM; in assay [5] it was > 80 µM.

Broadly, the IC50 is the concentration at which inhibition is half-maximal.

These data come from BindingDB's records for doi:10.1002/cbdv.201000242 (East China University of Science and Technology, 2011).
